Active and inactive are the calls of the source. The calls are words filed in the database; no cut-off is given here.

In series [1] the target is T1, Solute carrier family 22 member 12 (Homo sapiens, UniProt Q96S37).
T1 sequence (Q96S37 whole entry): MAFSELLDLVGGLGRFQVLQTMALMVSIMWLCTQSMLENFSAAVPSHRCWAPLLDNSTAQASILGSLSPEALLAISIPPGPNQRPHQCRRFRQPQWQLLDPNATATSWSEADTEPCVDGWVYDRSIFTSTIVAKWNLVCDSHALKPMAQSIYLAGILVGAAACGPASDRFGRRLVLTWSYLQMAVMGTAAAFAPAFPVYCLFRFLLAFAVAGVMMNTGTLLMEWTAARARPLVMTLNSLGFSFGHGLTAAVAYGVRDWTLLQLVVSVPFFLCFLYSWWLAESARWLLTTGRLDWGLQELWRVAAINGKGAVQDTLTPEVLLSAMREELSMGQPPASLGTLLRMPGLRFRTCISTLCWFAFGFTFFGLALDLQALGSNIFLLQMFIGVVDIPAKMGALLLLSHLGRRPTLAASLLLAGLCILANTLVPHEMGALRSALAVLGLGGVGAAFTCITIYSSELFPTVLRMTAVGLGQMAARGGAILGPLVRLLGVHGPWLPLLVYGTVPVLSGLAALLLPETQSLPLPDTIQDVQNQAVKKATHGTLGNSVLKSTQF
The series can be described thus: Inhibition of human URAT1 expressed in HEK293T cells using 6-carboxylic fluorescein substrate by fluorescence assay. It counts as cell-based.

Series [2] has as its target Xanthine dehydrogenase/oxidase (Homo sapiens, UniProt P47989). Put plainly: Inhibition of XOR (unknown origin) using xanthine as substrate measured for 10 mins by spectrophotometry.
Series [3] concerns the target T1, Solute carrier family 22 member 12. Put plainly: Inhibition of human URAT1 expressed in HEK293T cells using 6-carboxylic fluorescein substrate at 1000 uM by fluorescence assay. It is filed as cell-based.
A further series has as its target T2, URAT1 (SLC22A12) (Homo sapiens, UniProt Q96S37).
T2 sequence (Q96S37 whole entry): T1 sequence (Q96S37 whole entry)
The series can be described thus: Inhibition of human URAT1 expressed in HEK293T cells using 6-carboxylic fluorescein substrate at 100 uM by fluorescence assay relative to control. It is filed as cell-based. As to conditions: HEK293T cells expressing human URAT1, probe 6-carboxylic fluorescein.

The subject of series [4] is Mus musculus. The series can be described thus: Hypouricemic effect in potassium oxonate/hypoxanthine-induced acute hyperuricemia ICR mouse model assessed as decrease in serum uric acid level measured after 1 hr drug administration. It is filed as functional, organism-based.
Series [5] deals with Mus musculus. Put plainly: Hypouricemic effect in potassium oxonate/hypoxanthine-induced acute hyperuricemia ICR mouse model assessed as decrease in serum uric acid level at 5 mg/kg, gavage measured after 3 to 9 hrs of drug administration. It counts as functional, organism-based. Particulars: time 3-9 hrs.

Sequence of Xanthine dehydrogenase/oxidase (P47989 whole entry): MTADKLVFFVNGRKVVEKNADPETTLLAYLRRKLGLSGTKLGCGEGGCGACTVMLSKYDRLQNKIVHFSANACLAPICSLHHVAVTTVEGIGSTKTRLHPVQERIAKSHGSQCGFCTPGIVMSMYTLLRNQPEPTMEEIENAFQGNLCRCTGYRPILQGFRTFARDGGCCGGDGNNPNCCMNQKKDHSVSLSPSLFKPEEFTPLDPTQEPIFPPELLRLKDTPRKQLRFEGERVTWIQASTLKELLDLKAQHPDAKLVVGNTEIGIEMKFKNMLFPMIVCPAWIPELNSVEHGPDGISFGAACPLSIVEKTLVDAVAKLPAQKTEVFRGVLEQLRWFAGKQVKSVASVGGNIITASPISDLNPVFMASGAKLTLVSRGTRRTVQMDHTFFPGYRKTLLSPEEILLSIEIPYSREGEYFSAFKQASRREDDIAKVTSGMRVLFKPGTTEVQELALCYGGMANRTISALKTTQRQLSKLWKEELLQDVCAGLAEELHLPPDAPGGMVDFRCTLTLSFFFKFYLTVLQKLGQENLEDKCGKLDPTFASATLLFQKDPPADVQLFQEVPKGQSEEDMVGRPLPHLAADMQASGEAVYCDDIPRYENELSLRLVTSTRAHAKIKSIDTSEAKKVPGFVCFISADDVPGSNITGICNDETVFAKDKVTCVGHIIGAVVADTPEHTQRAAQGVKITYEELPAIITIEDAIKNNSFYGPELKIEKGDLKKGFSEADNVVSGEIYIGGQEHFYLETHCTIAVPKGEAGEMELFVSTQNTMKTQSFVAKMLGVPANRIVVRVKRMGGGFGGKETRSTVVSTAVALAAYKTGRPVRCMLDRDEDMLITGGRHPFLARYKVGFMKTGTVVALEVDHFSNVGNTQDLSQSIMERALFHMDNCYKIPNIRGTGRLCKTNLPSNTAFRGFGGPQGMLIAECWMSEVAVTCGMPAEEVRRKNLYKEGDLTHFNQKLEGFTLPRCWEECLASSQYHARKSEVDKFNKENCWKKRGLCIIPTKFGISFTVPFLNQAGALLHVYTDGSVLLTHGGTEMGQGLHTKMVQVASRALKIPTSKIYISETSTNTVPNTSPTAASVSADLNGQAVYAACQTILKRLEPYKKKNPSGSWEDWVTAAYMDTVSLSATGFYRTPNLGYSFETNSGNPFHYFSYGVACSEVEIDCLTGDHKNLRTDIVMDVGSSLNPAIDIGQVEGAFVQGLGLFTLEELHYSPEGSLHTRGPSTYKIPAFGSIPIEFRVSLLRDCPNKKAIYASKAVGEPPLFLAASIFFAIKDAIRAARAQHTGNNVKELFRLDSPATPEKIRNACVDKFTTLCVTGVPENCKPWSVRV

With `O=C(O)c1ccc(-c2cncc(Nc3ccc(Cl)c(Cl)c3)c2)cc1O`, the figures for the IC50 in series [1] and in series [2] were 80.7 µM and 0.019 µM, respectively.
The like results for `O=C(O)c1ccc(-c2cncc(Nc3ccccc3)c2)cc1O` were, in that order, 33.4 µM and 0.026 µM.
The like results for `Cc1ccc(Nc2cncc(-c3ccc(C(=O)O)c(O)c3)c2)cc1Cl` were, in that order, 51.7 µM and 0.043 µM.
The like results for `O=C(O)c1ccc(-c2cncc(Oc3ccc(F)cc3)c2)cc1O` were, in that order, 134 µM and 0.04 µM.
The molecule `Cc1nc(-c2ccc(OCC(C)C)c(C#N)c2)sc1C(=O)O` [FEBUXOSTAT] returned an IC50 in series [2] of 0.008 µM.
On to `O=C(O)c1ccc(-c2cncc(Nc3ccc(F)cc3)c2)cc1O`, for which the IC50 in series [1] came to 91.2 µM; in series [2], 0.015 µM.
Consider `O=C(O)c1ccc(-c2cncc(Nc3ccc(Cl)cc3)c2)cc1O`, for which the concentration for half-maximal inhibition (IC50) in series [1] came to 57.8 µM; in series [2], 0.013 µM.
The like results for `Cc1ccc(Nc2cncc(-c3ccc(C(=O)O)c(O)c3)c2)cc1F` were, in that order, 30.6 µM and 0.03 µM.
The like results for `CC(C)NC(=O)c1cncc(-c2ccc(F)c(C(=O)O)c2)c1` were, in that order, > 1000 µM and > 100 µM.
`O=C(O)c1ccc(-c2cncc(Oc3ccc(Cl)cc3)c2)cc1O`: the IC50 in series [1] stood at 64.6 µM; in series [2], 0.038 µM.
Take `CC(C)(C)c1ccc(Nc2cncc(-c3ccc(C(=O)O)c(O)c3)c2)cc1`: the IC50 is 70.3 µM in series [1] and 0.041 µM in series [2].
The like results for `O=C(O)c1ccc(-c2cncc(Nc3ccc(F)c(Cl)c3)c2)cc1O` were, in that order, 36.8 µM and 0.016 µM.
Consider `CC(C)NC(=O)c1cncc(-c2cccc(C(=O)O)c2)c1`, for which the IC50 in series [2] is > 100 µM. Further, in series [3], the “inhibition (INH)” value was “Not Active”.
In the case of `COc1ccc(Nc2cncc(-c3ccc(C(=O)O)c(O)c3)c2)cc1`, the IC50 in series [1] came to 58.3 µM; in series [2] it was 0.016 µM.
The like results for `Cc1cccc(Oc2cncc(-c3ccc(C(=O)O)c(O)c3)c2)c1` were, in that order, 86.2 µM and 0.026 µM.
The like results for `Cc1ccc(Nc2cncc(-c3ccc(C(=O)O)c(O)c3)c2)cc1` were, in that order, 43.6 µM and 0.004 µM.
Turning to `Cc1cccc(Nc2cncc(-c3ccc(C(=O)O)c(O)c3)c2)c1`, the half-inhibitory concentration (IC50) was 56.9 µM in series [1] and 0.023 µM in series [2].
`CC(C)NC(=O)c1cncc(-c2ccc(O)c(C(=O)O)c2)c1`: the values for the IC50 in series [1] and in series [2] were 221 µM and 80 µM, respectively.
The like results for `O=C(O)c1ccc(-c2cncc(Oc3cccc(Cl)c3)c2)cc1O` were, in that order, 55.9 µM and 0.045 µM.
The like results for `Cc1ccc(Nc2cncc(-c3ccc(C(=O)O)c(O)c3)c2)cc1C` were, in that order, 53.6 µM and 0.021 µM.
The like results for `O=C(O)c1ccc(-c2cncc(Nc3cccc(Cl)c3)c2)cc1O` were, in that order, 12.9 µM and 0.006 µM.
The molecule `Cc1nc(C)c(-c2csc(Nc3ccc(O)c(C(=O)O)c3)n2)s1` gave an inhibition at 100 µM at URAT1 (SLC22A12) of 35.5%. This molecule also gave an IC50 in series [2] of 3.95 µM.
The like results for `CC(=O)c1ccc(-c2cncc(C(=O)NC(C)C)c2)cc1` were, in that order, 15.6% and 6.4 µM.
For `CC(C)NC(=O)c1cncc(-c2ccc(C(=O)O)c(O)c2)c1`, the IC50 in series [1] amounted to 547 µM; in series [2], 0.037 µM.
With `CC(C)(C)c1ccc(Oc2cncc(-c3ccc(C(=O)O)c(O)c3)c2)cc1`, the IC50 was determined as 124 µM in series [1] and 0.121 µM in series [2]. For the same molecule, the outcome in the series with Mus musculus [4] was inactive. Also, the result in the series on Mus musculus [5] was Active.
Consider `CCc1ccc(Nc2cncc(-c3ccc(C(=O)O)c(O)c3)c2)cc1`, for which the IC50 in series [1] was 31.5 µM; in series [2] it was 0.026 µM.
In the case of `CC(C)NC(=O)c1cncc(-c2ccc(Cl)c(C(=O)O)c2)c1`, the IC50 in series [1] was > 1000 µM; in series [2] it was > 100 µM.
Turning to `O=C(O)c1ccc(-c2cncc(Oc3ccccc3)c2)cc1O`, the concentration for half-maximal inhibition (IC50) in series [1] turned out to be 86.7 µM; in series [2], 0.036 µM. Moreover, the result in the series on Mus musculus [4] was inactive. The outcome with Mus musculus [5] was Active.
Regarding `CC(C)NC(=O)c1cncc(-c2ccc(C#N)cc2)c1`, the IC50 in series [2] came to 75.4 µM. The “inhibition (INH)” value in series [3] is given as “Not Active”.
As for `Cc1ccc(Oc2cncc(-c3ccc(C(=O)O)c(O)c3)c2)cc1`, the IC50 is 106 µM in series [1] and 0.035 µM in series [2].
As to `CCc1oc2ccccc2c1C(=O)c1cc(Br)c(O)c(Br)c1`, the outcome with Mus musculus [5] was Active.
In turn, `CC(C)NC(=O)c1cncc(-c2ccc(C(=O)O)cc2)c1` had a concentration for half-maximal inhibition (IC50) in series [2] of 0.59 µM. For the same molecule, the “inhibition (INH)” value in series [3] was “Not Active”.

The values are drawn from ChEMBL document CHEMBL5512661, “Design, synthesis, and biological evaluation of 3-phenyl substituted pyridine derivatives as potential dual inhibitors of XOR and URAT1” (Eur J Med Chem, 2024).
